From US7923450B2, “Modulators for amyloid beta” (Hoffmann-La Roche Inc., priority 2008, dated 2011) come the findings set out here.

For one data set, the system named is γ-secretase. Nature of the data set: Cellular γ-secretase assay (Aβ42 secretion). The data set is classed as cell-based. To be noted: inhibition of Aβ42 secretion; human neuroglioma H4 cells overexpressing human APP; 22 hrs incubation; read-out: EC50 in vitro. How it is done:
Cellular γ-Secretase Assay
Human neuroglioma H4 cells overexpressing human APP were plated at 30,000 cells/well/200 μl in 96-well plates in IMDM media containing 10% FCS, 0.2 mg/l Hygromycin B and incubated for 2 h at 37° C., 5% CO2 prior to adding test compounds.
Compounds for testing were dissolved in 100% Me2SO yielding in a 10 mM stock solution. Typically 12 μl of these solutions were further diluted in 1000 μl of IMDM media (w/o FCS,). Sub sequential 1:1 dilutions gave a ten point dose response curve. 100 μl of each dilution was added to the cells in 96-well plates. Appropriate controls using vehicle only and reference compound were applied to this assay. The final concentration of Me2SO was 0.4%.
After incubation for 22 hrs at 37° C., 5% CO2, 50 μl supernatant was transferred into round-bottom 96-well polypropylene plates for detection of Aβ42. 50 μl assay buffer (50 mM Tris/Cl, pH 7.4, 60 mM NaCl, 0.5% BSA, 1% TWEEN 20) was added to the wells followed by the addition of 100 μl of detection antibody (ruthenylated Aβ42-specific antibody BAP15 0.0625 μg/mL in assay buffer). 50 μl of a premix of capture antibody (biotinylated 6E10 antibody, 1 μg/mL) and Steptavidin-coated magnetic beads (Dynal M-280, 0.125 mg/mL) were preincubated for 1 hr at room temperature before adding the assay plates. Assay plates were incubated on a shaker for 3 hrs at room temperature and finally read in the Bioveris M8 Analyser according to the manufacturer's instructions (Bioveris).
EC50 values for inhibition of Aβ42 secretion were calculated by nonlinear regression fit analysis using XLfit 4.0 software (IDBS).

pEC50: −log10 of the molar value.

Regarding `COc1cc(Nc2nc3c(s2)CCCC3(C)c2ccccc2)ccc1-n1cnc(C)c1` (centres unmarked) [Example 30, [3-Methoxy-4-(4-methyl-imidazol-1-yl)-phenyl]-(4-methyl-4-phenyl-4,5,6,7-tetrahydro-benzothiazol-2-yl)-amine], the melting point (commonly the temperature of the solid-liquid transition) was 123 to 126 °C. Besides, the pEC50 (as a rule, the negative decadic logarithm of the EC50, by convention in mol/L) in the data set with γ-secretase was 6.52.

`Cc1cn(-c2ccc(Nc3nc4c(s3)CCCC4c3ccc(C)c(C(F)(F)F)c3)cc2F)cn1` (centres unmarked) [Example 32, [3-Fluoro-4-(4-methyl-imidazol-1-yl)-phenyl]-[4-(4-methyl-3-trifluoromethyl-phenyl)-4,5,6,7-tetrahydro-benzothiazol-2-yl]-amine] had a melting point of 160 to 163 °C. Moreover, the pEC50 in the data set on γ-secretase is 6.59. For `Cc1cn(-c2ccc(Nc3nc4c(s3)CCCC4c3ccccc3Cl)cc2F)cn1` (centres unmarked) [Example 33, [4-(2-Chloro-phenyl)-4,5,6,7-tetrahydro-benzothiazol-2-yl]-[3-fluoro-4-(4-methyl-imidazol-1-yl)-phenyl]-amine] the same measures were 204 to 206 °C and 6.37.

In the case of `COc1ccccc1C1CCCc2sc(Nc3ccc(-n4cnc(C)c4)c(F)c3)nc21` (centres unmarked) [Example 35, [3-Fluoro-4-(4-methyl-imidazol-1-yl)-phenyl]-[4-(2-methoxy-phenyl)-4,5,6,7-tetrahydro-benzothiazol-2-yl]-amine], the melting point fell in the range of 227 to 230 °C. Further, the pEC50 in the data set with γ-secretase was 6.47. Turning to `Cc1cn(-c2ccc(Nc3nc4c(s3)CCCC4c3ccc(Cl)cc3Cl)cc2F)cn1` (centres unmarked) [Example 36, [4-(2,4-Dichloro-phenyl)-4,5,6,7-tetrahydro-benzothiazol-2-yl]-[3-fluoro-4-(4-methyl-imidazol-1-yl)-phenyl]-amine], the melting point lay within 136 to 139 °C. For the same compound, in the data set on γ-secretase, the pEC50 was 6.34. The matching figures for `COc1cc(Nc2ncc3c(n2)C(c2ccc(Cl)cc2)CCC3)ccc1-n1cnc(C)c1` (centres unmarked) [Example 50, [8-(4-Chloro-phenyl)-5,6,7,8-tetrahydro-quinazolin-2-yl]-[3-methoxy-4-(4-methyl-imidazol-1-yl)-phenyl]-amine]: 210 to 212 °C and 6.42. `Cc1cn(-c2ccc(Nc3ncc4c(n3)C(c3ccc(F)cc3)CCC4)cc2F)cn1` (centres unmarked) [Example 60, [3-Fluoro-4-(4-methyl-imidazol-1-yl)-phenyl]-[8-(4-fluoro-phenyl)-5,6,7,8-tetrahydro-quinazolin-2-yl]-amine] registered a melting point of 201 to 203 °C. Also, the pEC50 in the data set with γ-secretase is 6.30. The compound `COc1cc(Nc2ncc3c(n2)C(C(=O)N(C)C)CCC3)ccc1-n1cnc(C)c1` (centres unmarked) [Example 86, 2-[3-Methoxy-4-(4-methyl-imidazol-1-yl)-phenylamino]-5,6,7,8-tetrahydro-quinazoline-8-carboxylic acid dimethylamide] had a melting point of 150 to 152 °C. Regarding `COc1cc(Nc2ncc3c(n2)C(C(=O)N2CCCC2)CCC3)ccc1-n1cnc(C)c1` (centres unmarked) [Example 87, {2-[3-Methoxy-4-(4-methyl-imidazol-1-yl)-phenylamino]-5,6,7,8-tetrahydro-quinazolin-8-yl}-pyrrolidin-1-yl-methanone], the melting point was in the range of 94 to 95 °C. In turn, `COc1cc(Nc2nc3c(s2)CCCC3c2ccccc2)ccc1-c1nc(C)no1` (centres unmarked) [Example 89, [3-Methoxy-4-(3-methyl-[1,2,4]oxadiazol-5-yl)-phenyl]-(4-phenyl-4,5,6,7-tetrahydro-benzothiazol-2-yl)-amine] came in with a melting point of 228 to 231 °C.
